# Experimental data taken from patent US20220387457A1 (Qlaris Bio, Inc., priority 2020, published 2022).
# Columns and labels:
# [1] = Toxicity and clinical signs after escalating intravenous doses of CKLP1 in beagles; type: in vivo, beagle dog; conditions: both sexes, beagle, dog, in vivo
# Description: (§1) Two beagles (one male and one female) were intravenously injected with escalating doses of CKPL1 (0.05 mg/kg, 0.5 mg/kg, 1.5 mg/kg, 3 mg/kg, and 5 mg/kg) to assess the toxicity of CKLP1. The injection was done through the cephalic vein and CKLP1 was administered in a phosphate buffered saline solution ((0.096% sodium phosphate dibasic, 0.089% sodium dihydrogen orthophosphate monohydrate, 0.83% sodium chloride) pH 6.5±0.1 in sterile water for injection USP). The dosing schedule is shown below in Table 3.
# (§2) The following parameters and endpoints were evaluated: mortality, clinical observations, body and organ weights, and food consumption. Bioanalytical samples for toxicokinetic parameters (for both CKLP1 and leveromakalim) were collected after each dose level (days 1, 3, 8, 10, and 14) at predose, 1, 3, 6, 8, and 24 hours postdose. Animals were released from the study after completion of the bioanalytical sample collection schedule.
# [2] = system: beagles; experiment: as above; type: in vivo, beagle dog; conditions: for dose with red discoloration of the skin: IV
# Description: as §1, §2
# [3] = system: Dutch-belted pigmented rabbits (IOP); conditions: previously reported; cited from earlier work
# [4] = system: hound dogs; experiment: Histology, blood chemistry and tolerability after bilateral topical CKLP1 in hound dogs
# Description: To evaluate local and systemic side effects of bilateral topical administration of CKLP1 to the eyes, additional tissue samples were harvested for histological examination. Tissues collected and fixed during necropsy were processed into paraffin blocks, sectioned, and stained with hematoxylin and eosin.
# [5] = system: α-SMA, CD31, endothelin-I, fibronectin, VE-cadherin, phospho-eNOS and total eNOS; experiment: Protein expression (western blot, immunocytochemistry) in 3D HTM/SC constructs; type: cell-based, human; conditions: levcromakalim 1, 10 or 100 μM; Y-27632 10 μM
# Description: Bioengineered 3D conventional outflow tract constructs using 4 donors (ages 47-91) were treated with […] (5 ng/mL) for 6 days. […] Protein expression of α-smooth muscle actin (α-SMA), CD31, endothelin-I, fibronectin, VE-cadherin, phospho-eNOS and total eNOS was analyzed via western blot. Cellular expression of α-SMA, fibronectin, phospho-eNOS and total eNOS was determined by immunocytochemistry and confocal microscopy. Statistical significance was determined by one-way ANOVA with a Tukey's multiple comparisons test, or by two-way ANOVA.
compound,measurement,setting,value
CC1(C)Oc2ccc(C#N)cc2[C@@H](N2CCCC2=O)[C@@H]1OP(=O)(O)O [CKLP1],NOAEL,"[1]; iv, read-out: no-observed adverse effect level (NOAEL)",3 mg/kg
same,MTD,"[1]; single escalating IV doses, read-out: maximum tolerated dose (MTD)",3 mg/kg
same,adverse clinical signs,[2]; IV 5 mg/kg,"increased heart rate, warm to touch, and/or partly closed eyes"
same,Clinical Signs,[2]; IV CKLP1 0.5 mg/kg,"red discoloration of the skin (pinnae, gums, generalized"
same,Clinical Signs,[2]; IV CKLP1 1.5 mg/kg,"red discoloration of the skin (pinnae, gums, generalized"
same,Clinical Signs,[2]; IV CKLP1 3 mg/kg,"red discoloration of the skin (pinnae, gums, generalized"
same,Clinical Signs,[2]; IV CKLP1 5 mg/kg,"red discoloration of the skin (pinnae, gums, generalized"
same,histological examination,[2]; escalating IV doses,no systemic toxicity
same,"mortality, body weight, food consumption",[2]; escalating IV doses 0.05-5 mg/kg,"No mortality, change in body weight or food consumption"
same,dose with red discoloration of the skin,[2]; female dog,≥ 0.5 mg/kg
same,peripheral vasodilation,[2]; following intravenous administration in dogs,induces peripheral vasodilation
same,dose with red discoloration of the skin,[2]; male dog,≥ 0.05 mg/kg
same,IOP lowered by,[3],~16%
same,"overall tolerability, ocular or systemic toxicity",[4]; bilateral eye treatment with CKLP1,well tolerated and did not result in any observed ocular or systemic toxicity
same,histology of 40 different tissues,"[4]; bilateral topical 10 mM CKLP1, 12-13 days",none of the analyzed tissues showed any significant pathology
same,blood chemistry,"[4]; bilateral topical 10 mM CKLP1, except albumin, slightly lower in treated and control",within normal range
"CC1(C)Oc2ccc(C#N)cc2[C@@H](N2CCCC2=O)[C@@H]1O [Levcromakalim, levcromakalim, reference compound]",expression of the cell adhesion proteins CD31 and VE-Cadherin,[5],did not significantly affect
